# “Also recorded” adds a separate entry of the source. Like-named read-outs stand apart in the source and are kept apart here.
# Tests used:
# 5-HT2A [1] = target: T1, 5-HT2A (Homo sapiens, UniProt P28223); assay: Ca2+ flux assay, 5-HT2A; format: cell-based; set-up: expressed in transfected cells
# Description: (§1) Cell lines were maintained in DMEM containing 10% FBS, 10 μg/mL Blasticidin (Invivogen), and 100 μg/mL Hygromycin B (GoldBio). At least 20-24 hours before the assay, receptor expression was induced with tetracycline ([…]) and cells were seeded into 384-well poly-L-lysine-coated black plates at a density of 7,500 cells/well in DMEM containing 1% dialyzed FBS. On the day of the assay, the cells were incubated for 1 h at 37° C. with Fluo-4 Direct dye (Invitrogen, 20 μl/well) reconstituted in drug buffer (20 mM HEPES-buffered HBSS, pH 7.4) containing 2.5 mM probenecid. Drug dilutions were prepared at 5X final concentration in McCorvy buffer (20 mM HEPES-buffered HBSS, 0).1% BSA, 0.01% ascorbic acid pH 7.4). After dye load, cells were allowed to equilibrate to room temperature for 15 minutes, and then placed in a FLIPR^TETRA fluorescence imaging plate reader (Molecular Devices). Fluorescence for the FLIPR^TETRA were programmed to read baseline fluorescence for 10 s (1 read/s), and afterward 5 μl of drug per well was added and read for a total of 5-10 min (1 read/s). Fluorescence in each well was normalized to the average of the first 10 reads for baseline fluorescence, and then either maximum-fold peak increase over basal or area under the curve (AUC) was calculated. […] Data was plotted and non-linear regression was performed using “log(agonist) vs. response” in Graphpad Prism 8 to yield Emax and EC50 parameter estimates.
# 5-HT2B [2] = target: T2, 5-HT2B (Homo sapiens, UniProt P41595); assay: Ca2+ flux assay, 5-HT2B; format: cell-based; set-up: expressed in transfected cells; details: Ca2+ flux
# T2 sequence (P41595 whole entry): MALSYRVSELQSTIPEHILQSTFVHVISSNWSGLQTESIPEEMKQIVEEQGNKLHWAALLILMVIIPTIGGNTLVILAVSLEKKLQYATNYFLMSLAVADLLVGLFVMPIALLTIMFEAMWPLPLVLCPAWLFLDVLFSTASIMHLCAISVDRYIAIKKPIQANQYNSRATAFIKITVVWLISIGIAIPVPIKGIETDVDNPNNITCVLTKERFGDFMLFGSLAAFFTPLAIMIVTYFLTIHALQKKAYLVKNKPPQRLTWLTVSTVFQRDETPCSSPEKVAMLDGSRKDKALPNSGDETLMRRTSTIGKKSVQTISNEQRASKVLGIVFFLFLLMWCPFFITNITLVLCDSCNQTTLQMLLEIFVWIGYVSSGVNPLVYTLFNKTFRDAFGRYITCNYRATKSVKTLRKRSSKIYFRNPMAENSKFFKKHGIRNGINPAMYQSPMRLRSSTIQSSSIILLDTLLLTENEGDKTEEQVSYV
# Description: as §1
# 5-HT2A [3] = assay: Ca2+ flux assay, 5-HT2A; format: cell-based, human; details: Gq/11 Ca2+ mobilization; higher number = skewed towards 5-HT2A
# Description: as §1
# male C57BL/6J mice = assay: Head-twitch response (HTR) in mice; format: in vivo, mouse; details: for ED50: Mus musculus
# Description: Male C57BL/6J mice (6-8 weeks old) from Jackson Labs (Bar Harbor, ME, USA) were used for the behavioral experiments. The mice were housed on a reversed light-dark cycle (lights on at 1900 h, off at 0700 h) in an AAAC-approved vivarium at the University of California San Diego. Mice were housed up to four per cage in a climate-controlled room and with food and water provided ad libitum except during behavioral testing. Testing was performed between 1000 and 1800 h (during the dark phase of the light-dark cycle). The studies were conducted in accordance with National Institutes Health (NIH) guidelines and were approved by the University of California San Diego Institutional Animal Care and Use Committee.
# The mice were allowed to recover from the magnet implantation surgeries for at least 1 week prior to behavioral testing. HTR experiments were conducted in a well-lit room, and the mice were allowed to habituate to the room for at least 1 h prior to testing. Head twitches was assessed in a 12-cm diameter glass cylinder surrounded by a magnetometer coil. Coil voltage was low-pass filtered (2 kHz), amplified, and digitized (20-kHz sampling rate) using a Powerlab/8SP with LabChart v 7.3.2 (ADInstruments, Colorado Springs, CO, USA). […] HTR counts were analyzed using one-way ANOVAs. Dunnett's test was used for post hoc comparisons.
# 5-HT2C [4] = target: T3, 5-HT2C (Homo sapiens, UniProt P28335); assay: Ca2+ flux assay, 5-HT2C; format: cell-based; set-up: expressed in transfected cells
# T3 sequence (P28335 33-458): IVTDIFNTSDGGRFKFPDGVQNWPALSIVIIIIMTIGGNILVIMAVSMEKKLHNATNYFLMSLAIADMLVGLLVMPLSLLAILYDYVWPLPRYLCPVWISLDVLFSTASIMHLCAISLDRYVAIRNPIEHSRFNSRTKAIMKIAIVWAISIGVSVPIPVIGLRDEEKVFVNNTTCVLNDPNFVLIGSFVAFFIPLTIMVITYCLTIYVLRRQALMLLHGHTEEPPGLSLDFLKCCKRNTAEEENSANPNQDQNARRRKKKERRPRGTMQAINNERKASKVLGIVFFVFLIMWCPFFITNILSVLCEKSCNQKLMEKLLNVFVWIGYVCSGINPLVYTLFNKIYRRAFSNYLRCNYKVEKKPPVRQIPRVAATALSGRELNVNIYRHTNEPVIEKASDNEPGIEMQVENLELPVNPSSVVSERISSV
# Description: as §1
# 5-HT2C [5] = target: T3, 5-HT2C; assay: BRET Gq dissociation, 5-HT2C; format: cell-based; set-up: expressed in transfected cells; host or cells: HEK293T, transient; details: for Emax: read-out: 5-HT2C Gq Dissociation (BRET) EMAX ± SEM (%5-HT); for EC50: read-out: 5-HT2C Gq Dissociation (BRET) pEC50 ± SEM (converted)
# Description: (§2) After at least 18-24 hours, transfected cells were plated in poly-lysine coated 96-well white clear bottom cell culture plates in DMEM containing 1% dialyzed FBS at a density of 25-40,000 cells in 200 μL per well and incubated overnight. After approximately 20-24 hours, media was decanted and cells were washed with 60 μL of drug buffer (1×HBSS, 20 mM HEPES, pH 7.4), followed by 60 μL of drug buffer and pre-incubated in a humidified atmosphere at 37° C. before receiving drug stimulation. Drug stimulation was induced by adding 30 μL of a solution of drug (3X) diluted in McCorvy buffer (1×HBSS, 20 mM HEPES, pH 7.4, supplemented with 0.3% BSA fatty acid free, 0.03% ascorbic acid) and plates were incubated at the indicated time and temperature. Fifteen minutes before reading, 10 μL of the RLuc substrate, either coelenterazine h for β-Arrestin recruitment BRET^1 or coelenterazine 400a for Gq dissociation BRET^2 (Prolume/Nanolight, 5 μM final concentration) was addedper well. […] The BRET ratios of fluorescence/luminescence were calculated per well and were plotted as a function of drug concentration using Graphpad Prism 8 (Graphpad Software Inc., San Diego, CA).
# 5-HT2A [6] = target: T1, 5-HT2A; assay: cell-based; set-up: expressed in transfected cells; host or cells: HEK293T, transient; details: for EC50: BRET, mean ± SEM, read-out: 5-HT2A β-arrestin recruitment pEC50 (converted); for Emax: read-out: 5-HT2A β-arrestin Emax (% 5-HT), BRET, mean ± SEM
# Description: as §2
# 5-HT2B [7] = target: T2, 5-HT2B; assay: BRET Gq dissociation, 5-HT2B; format: cell-based; set-up: expressed in transfected cells; host or cells: HEK293T, transient; details: for Emax: read-out: 5-HT2B Gq Dissociation (BRET) EMAX ± SEM (%5-HT); for EC50: read-out: 5-HT2B Gq Dissociation (BRET) pEC50 ± SEM (converted)
# Description: After at least 18-24 hours, transfected cells were plated in poly-lysine coated 96-well white clear bottom cell culture plates in DMEM containing 1% dialyzed FBS at a density of 25-40,000 cells in 200 μL per well and incubated overnight. After approximately 20-24 hours, media was decanted and cells were washed with 60 μL of drug buffer (1×HBSS, 20 mM HEPES, pH 7.4), followed by 60 μL of drug buffer and pre-incubated in a humidified atmosphere at 37° C. before receiving drug stimulation. Drug stimulation was induced by adding 30 μL of a solution of drug (3X) diluted in McCorvy buffer (1×HBSS, 20 mM HEPES, pH 7.4, supplemented with 0.3% BSA fatty acid free, 0.03% ascorbic acid) and plates were incubated at the indicated time and temperature. Fifteen minutes before reading, 10 μL of the RLuc substrate, either coelenterazine h for β-Arrestin recruitment BRET^1 or coelenterazine 400a for Gq dissociation BRET^2 (Prolume/Nanolight, 5 μM final concentration) was addedper well. Plates were read for luminescence at 485 nm and fluorescent eYFP emission at 530 nm for BRET^1 and at 400 nm and fluorescent GFP2 emission at 510 nm for BRET2 at 1 second per well using a Mithras LB940 (Berthold). The BRET ratios of fluorescence/luminescence were calculated per well and were plotted as a function of drug concentration using Graphpad Prism 8 (Graphpad Software Inc., San Diego, CA).
# 5-HT2A [8] = target: T1, 5-HT2A; assay: cell-based; set-up: expressed in transfected cells; host or cells: HEK293T, transient; details: for Emax: read-out: 5-HT2A Gq Emax (% 5-HT), BRET, mean ± SEM
# Description: as §2
# [9] = read-out: HTR ED50 μmol/kg (95% CI), SC, except DOI and 25D-NBOMe IP
# [10] = read-out: HTR ED50 mg/kg (95% CI), SC, except DOI and 25D-NBOMe IP
# [11] = BRET, mean ± SEM, read-out: 5-HT2A Gq dissociation pEC50 (converted)
# T1 sequence (P28223 whole entry): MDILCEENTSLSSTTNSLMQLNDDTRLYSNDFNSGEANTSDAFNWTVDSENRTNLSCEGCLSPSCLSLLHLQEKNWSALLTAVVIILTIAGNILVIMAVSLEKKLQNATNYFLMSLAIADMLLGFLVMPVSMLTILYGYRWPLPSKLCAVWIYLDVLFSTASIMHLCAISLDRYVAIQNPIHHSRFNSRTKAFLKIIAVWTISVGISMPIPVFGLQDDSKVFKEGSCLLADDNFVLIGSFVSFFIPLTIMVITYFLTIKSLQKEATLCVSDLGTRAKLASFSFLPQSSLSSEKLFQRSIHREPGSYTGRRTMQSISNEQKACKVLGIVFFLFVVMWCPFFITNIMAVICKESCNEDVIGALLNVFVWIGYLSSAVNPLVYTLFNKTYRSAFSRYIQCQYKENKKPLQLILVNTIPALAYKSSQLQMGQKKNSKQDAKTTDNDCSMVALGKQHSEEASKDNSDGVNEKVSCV
Structure (SMILES),Max HTR response during a 30-min assessment (maximum counts ÷ baseline response) (male C57BL/6J mice),ED50 (male C57BL/6J mice; [10]) [mg/kg],Emax (5-HT2C [5]) [%],EC50 (5-HT2C [5]) [nM],EC50 (5-HT2A [6]) [nM],Emax (5-HT2A [6]) [%],5-HT2B Gq Dissociation (BRET) EMAX ± SEM (%5-HT) (5-HT2B [7]),5-HT2B Gq Dissociation (BRET) pEC50 ± SEM (5-HT2B [7]),Induction of the HTR in mice (in words) (male C57BL/6J mice),EC50 (5-HT2A [8]; [11]) [nM],Emax (5-HT2A [8]) [%],other results
CCOc1ccccc1CNCCc1cc(OC)c([N+](=O)[O-])cc1OC [25N-NBOEt (5)],13.2-fold increase,0.57,,,,,,,,,,"EC50 (5-HT2A [1]; 5-HT2A EC50, nM, Ca2+ flux): 0.72 nM; Emax (5-HT2A [1]; read-out: 5-HT2A Emax % 5-HT, Ca2+ flux): 87 ± 2%; 5-HT2B EC50, nM (5-HT2B [2]): No activity; Emax (5-HT2B [2]; read-out: 5-HT2B Emax % 5-HT): < 10%; 5-HT2A/5-HT2c Selectivity Factor ΔLog(Emax/EC50) (5-HT2A [3]): 1.0; ED50 (male C57BL/6J mice; [9]): 1.44 µmol/kg; EC50 (5-HT2C [4]; 5-HT2C EC50, nM): 0.88 nM; Emax (5-HT2C [4]; read-out: 5-HT2C Emax % 5-HT): 99 ± 1%"
"COc1cc2c(cc1CCNCc1cccc3ccccc13)OCO2 [(39), [2-(6-methoxy-2H-1,3-benzodioxol-5-yl)ethyl][(naphthalen-1-yl)methyl]amine]",1.4-fold increase,> 30,90.5 ± 2.3,17,5.89,80.1 ± 2.5,No activity,No activity,failed to induce a HTR,15.5,26.4 ± 2,
"COc1cc(CCNCc2ccccc2OC)c(OC)cc1I [Compound 25I-NBOMe, reference compound]",16.0-fold increase,0.078,124 ± 3.1,0.0977,0.525,137 ± 3.7,,,,0.355,,"Emax (5-HT2B [7]): 78.6 ± 2.6%; EC50 (5-HT2B [7]): 3.39 nM; ED50 (male C57BL/6J mice; [9]): 0.17 µmol/kg; 5-HT2A Gq Emax (% 5-HT) (5-HT2A [8]; BRET, mean ± SEM): 99.8 ± 1.2 % 5-HT"
COc1cc(OC)c(OC)cc1CCNCc1ccccc1-c1ccc(O)cc1 [(64)],2.1-fold increase,> 30,80.6 ± 9.8,1700,11.7,80.5 ± 5.5,,,,,43.6 ± 2.5,Emax (5-HT2B [7]): 29.2 ± 10.6%; EC50 (5-HT2B [7]): 3020 nM; EC50 (5-HT2A [8]): 617 nM
"COc1cc(OC)c(OC)cc1CCNCc1ccccc1-c1cccs1 [(59), N-(2-(thiophen-2-yl)benzyl)-2-(2,4,5-trimethoxyphenyl)-ethan-1-amine]",1.6-fold increase,> 30,,,8.51,100 ± 3.5,No activity,No Activity,lacked a HTR,24,34.9 ± 1.6,5-HT2C Gq Dissociation (BRET) EMAX ± SEM (%5-HT) (5-HT2C [5]): No Activity; 5-HT2C Gq Dissociation (BRET) pEC50 ± SEM (5-HT2C [5]): No Activity
COc1cc(OC)c(OC)cc1CCNCc1ccccc1OCc1ccccc1 [(61)],1.4-fold increase,> 30,,,3.31,72.9 ± 4.2,No activity,No activity,lacked a HTR; also recorded: do not induce the HTR,,< 10,"5-HT2C Gq Dissociation (BRET) EMAX ± SEM (%5-HT) (5-HT2C [5]): No Activity; 5-HT2C Gq Dissociation (BRET) pEC50 ± SEM (5-HT2C [5]): No Activity; 5-HT2A Gq dissociation pEC50 (5-HT2A [8]; BRET, mean ± SEM): No activity"
COc1cc(OC)c(OC)cc1CCNCc1cccc2ccccc12 [(38)],1.0-fold increase,> 30,64.4 ± 2,12.6,1.62,74.9 ± 1.9,No activity,No activity,failed to induce a HTR,5.5,24.3 ± 1.2,

# From patent publication US20240254087A1, “SELECTIVE, PARTIAL, AND ARRESTIN-BIASED 5-HT2A AGONISTS WITH UTILITY IN VARIOUS DISORDERS” (Saint Joseph's University, priority 2021, published 2024)
